Values quoted from earlier work as cited in patent US20190275270A1, “SYSTEM AND METHOD FOR ARRESTING DEBILITATING MIGRAINE EVENTS” (priority 2018, published 2019).

How the values were obtained:
[1] = system: migraine incidences; conditions: used in a preventative context
[2] = target: T1, CB2 (Homo sapiens, UniProt P34972)
[3] = system: nitric oxide (NO) production; conditions: read-out: inhibits NO production, IC50
[4] = target: T1, CB2; remark: listed apart in the source
[5] = target: T2, CB1 (Homo sapiens, UniProt P21554)
[6] = target: T2, CB1; remark: listed apart in the source

T2 sequence (P21554 whole entry, species assumed): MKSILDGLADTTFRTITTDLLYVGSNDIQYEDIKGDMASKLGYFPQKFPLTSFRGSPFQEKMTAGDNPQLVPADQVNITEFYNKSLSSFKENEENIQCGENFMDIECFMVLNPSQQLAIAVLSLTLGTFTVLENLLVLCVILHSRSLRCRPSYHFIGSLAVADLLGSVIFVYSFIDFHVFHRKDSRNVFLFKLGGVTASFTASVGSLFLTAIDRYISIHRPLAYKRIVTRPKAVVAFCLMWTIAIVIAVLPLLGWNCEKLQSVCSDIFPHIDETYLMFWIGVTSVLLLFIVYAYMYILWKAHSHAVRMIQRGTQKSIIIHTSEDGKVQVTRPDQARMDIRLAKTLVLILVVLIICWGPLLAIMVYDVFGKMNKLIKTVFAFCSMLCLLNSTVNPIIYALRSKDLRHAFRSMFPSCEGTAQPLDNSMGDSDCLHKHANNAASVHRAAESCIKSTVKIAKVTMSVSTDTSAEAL
T1 sequence (P34972 whole entry, species assumed): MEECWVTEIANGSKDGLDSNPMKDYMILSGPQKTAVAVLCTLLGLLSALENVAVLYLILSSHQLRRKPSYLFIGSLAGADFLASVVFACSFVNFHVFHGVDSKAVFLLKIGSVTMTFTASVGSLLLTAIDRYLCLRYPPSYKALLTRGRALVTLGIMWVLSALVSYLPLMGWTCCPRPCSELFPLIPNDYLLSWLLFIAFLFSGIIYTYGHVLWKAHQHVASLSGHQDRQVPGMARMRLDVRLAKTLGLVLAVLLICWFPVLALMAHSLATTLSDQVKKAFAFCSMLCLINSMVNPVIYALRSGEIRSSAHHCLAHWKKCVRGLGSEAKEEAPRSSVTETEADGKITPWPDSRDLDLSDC

Row | Compound | activity at CB2 [2] | binding to CB2 [4] | binding to CB1 [5] | further results
1 | C=C(C)[C@@H]1CCC(C)=C[C@H]1c1c(O)cc(CCCCC)cc1O [CBD, cannabidiol] | – | – | – | cut in migraine incidences [1]: more than 50%
2 | C=CCc1ccc(O)c(-c2cc(CC=C)ccc2O)c1 [Magnolol] | partial agonist | – | – | IC50 [3]: ~6.2 µM
3 | CCCCCCC[C@@H](C/C=C/CCC(=O)N(C)C/C(=C/Cl)C/C(=C\C(=O)N1CC(O)CC1=O)OC)OC (stereo partly drawn) [Malyngamide B] | – | moderate potencies | moderate potencies | –
4 | C=CCc1ccc(O)c(-c2ccc(O)c(CC=C)c2)c1 [honokiol] | antagonistic properties | – | – | activity at CB1 [6]: full agonistic activity
5 | caryophyllene | – | binds | binds | –
